The structures appear in SMILES notation. Converted amounts (≈) assume the structure as drawn. Bounds are passed on as bounds.

In ChEMBL document CHEMBL1130782, “Syntheses and evaluation of benzodiazaborine compounds against M. tuberculosis H37Rv in vitro” (1998) one finds MIC data, which are given here for eight compounds.

Assay type in all cases: functional
Assay [1] relates to Mycobacterium tuberculosis. The assay is described as follows: Compound was tested in vitro for growth inhibition activity against Mycobacterium tuberculosis H37Rv in Bactec 12B media.
Assay [2] deals with Mycobacterium tuberculosis. The assay is described as follows: Compound was tested in vitro for growth inhibition activity against Mycobacterium tuberculosis H37Rv in Bactec 6A media.
The test system of assay [3] is Escherichia coli. The assay is described as follows: Compound was tested in vitro for growth inhibition activity against Escherichia coli.

In general, MIC refers to the least concentration at which growth counts as inhibited. Lower therefore signals greater potency. Turning to `NC(=O)c1cnccn1` [PYRAZINAMIDE], the MIC in assay [1] is greater than 1600 µM; in assay [2], 1600 µM (≈ 197 µg/mL).
Consider `NNC(=O)c1ccncc1` [ISONIAZID], for which the MIC in assay [1] is less than 0.16 µM; in assay [2], less than 0.02 µM.
For the compound `Cc1ccc(S(=O)(=O)N2N=Cc3ccccc3B2O)cc1`, the MIC worked out at 83 µM (≈ 24.9 µg/mL) in assay [3], 320 µM (≈ 96 µg/mL) in assay [1] and 40 µM (≈ 12 µg/mL) in assay [2].
Consider `O=C1Nc2ccccc2B(O)N1c1ccccc1`, for which the minimal inhibitory concentration (MIC) in assay [1] was 67.2 µM (≈ 16 µg/mL); in assay [2] it was 33.6 µM (≈ 8 µg/mL).
On to `OB1c2ccccc2N=C(S)N1c1cccnc1`, for which the figures for the MIC in assay [1] and in assay [2] were 63 µM (≈ 16.1 µg/mL) and 31.4 µM (≈ 8.01 µg/mL), respectively.
For the compound `CCCCN1B(O)c2ccccc2NC1=O`, the MIC in assay [1] and in assay [2] was greater than 587 µM each time.
Consider `NCCOB(c1ccccc1)c1ccccc1`, for which the values for the MIC in assay [1] and in assay [2] were 285 µM (≈ 64.2 µg/mL) and 71 µM (≈ 16 µg/mL), respectively.
For `OB1N=C(c2cnccn2)Nc2ccccc21`, in that order: greater than 572 µM and greater than 572 µM.
